Source: paper PMC7377239, “Cardiovascular Effects of Polychlorinated Biphenyls and Their Major Metabolites” (Environmental Health Perspectives, 2020)
Where a name gives a salt, the structure may show the parent alone. Read-outs that look alike come from different tables or passages of the source.

Tested on: iCell cardiomyocytes (human iPSC-derived cardiomyocytes)
Assay: Intracellular Ca2+ flux / beating parameters in iCell cardiomyocytes (FLIPR tetra), 90 min or 24 h
Type: cell-based
Conditions: Homo sapiens, Cardiomyocyte, 0.00 µM = 100.00; for activity at 0.1 µM: 0.10 µM
In short: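 PODs were defined as the concentration crossing one SD of the vehicle-control means (0.5% DMSO) on four-parameter logistic fits of Ca2+ trace metrics (peak height, frequency, peak-spacing CV, decay/rise ratio). Traces came from 100 s, 8 Hz FLIPR reads at 37 °C on calcium-dye-loaded iCell cardiomyocytes. Before reading, cells were treated for 90 min or 24 h from 5× chemical plates spanning 0.05–500 µM, in triplicate.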

[1] = 1.5 h, read-out: cm.amp.avg.90min
[2] = 1.5 h, read-out: cm.amp.cv.90min
[3] = 1.5 h, read-out: cm.decay.rise.90min
[4] = 1.5 h, read-out: cm.spacing.cv.90min
[5] = 24 h, read-out: cm.amp.avg.24hrs
[6] = 24 h, read-out: cm.amp.cv.24hrs
[7] = 24 h, read-out: cm.decay.rise.24hrs
[8] = 24 h, read-out: cm.spacing.cv.24hrs

O=S(=O)(O)Oc1ccc(-c2cccc(Cl)c2)cc1Cl [4-yl PCB 11 sulfate]
activity at 0.01 µM [1]: 98.2%
activity at 0.01 µM [2]: 88.2%
activity at 0.01 µM (1.5 h, read-out: cm.bpm.90min): 97.8%
activity at 0.01 µM [3]: 98.1%
activity at 0.01 µM [4]: 99.6%
activity at 0.1 µM [1]: 93.1%
activity at 0.1 µM [2]: 97.2%
activity at 0.1 µM (1.5 h, read-out: cm.bpm.90min): 100%
activity at 0.1 µM [3]: 102%
activity at 0.1 µM [4]: 99%
activity at 1 µM [1]: 99.5%
activity at 1 µM [2]: 116%
activity at 1 µM (1.5 h, read-out: cm.bpm.90min): 99.1%
activity at 1 µM [3]: 99.7%
activity at 1 µM [4]: 103%
activity at 10 µM [1]: 96.9%
activity at 10 µM [2]: 93.4%
activity at 10 µM (1.5 h, read-out: cm.bpm.90min): 99.1%
activity at 10 µM [3]: 98.1%
activity at 10 µM [4]: 96.5%
activity at 100 µM [1]: 45.7%
activity at 100 µM [2]: 62.5%
activity at 100 µM (1.5 h, read-out: cm.bpm.90min): 15.1%
activity at 100 µM [3]: 39.8%
activity at 100 µM [4]: 107%
activity at 0.01 µM [5]: 98.1%
activity at 0.01 µM [6]: 94.2%
activity at 0.01 µM (24 h, read-out: cm.bpm.24hrs): 97.4%
activity at 0.01 µM [7]: 110%
activity at 0.01 µM [8]: 104%
activity at 0.1 µM [5]: 78.9%
activity at 0.1 µM [6]: 34.3%
activity at 0.1 µM (24 h, read-out: cm.bpm.24hrs): 46.8%
activity at 0.1 µM [7]: 51.8%
activity at 0.1 µM [8]: 46.3%
activity at 1 µM [5]: 88.9%
activity at 1 µM [6]: 119%
activity at 1 µM (24 h, read-out: cm.bpm.24hrs): 93.6%
activity at 1 µM [7]: 100%
activity at 1 µM [8]: 87.1%
activity at 10 µM [5]: 88.7%
activity at 10 µM [6]: 119%
activity at 10 µM (24 h, read-out: cm.bpm.24hrs): 93.6%
activity at 10 µM [7]: 104%
activity at 10 µM [8]: 98.9%
activity at 100 µM [5]: 0%
activity at 100 µM [6]: 0%
activity at 100 µM (24 h, read-out: cm.bpm.24hrs): 0%
activity at 100 µM [7]: 0%
activity at 100 µM [8]: 0%
